Results from ChEMBL document CHEMBL4725370, “Discovery of Proteolysis-Targeting Chimera Molecules that Selectively Degrade the IRAK3 Pseudokinase” (J Med Chem, 2020).
The source made the active and inactive calls. The rule behind the calls is not given here.

Columns and labels:
[1] = Octanol/buffer partition coefficient, log D of the compound at pH 7.4 by shake-flask method; format: physicochemical
[2] = Intrinsic apparent permeability across apical to basolateral side in human Caco-2 cells
[3] = target: Interleukin-1 receptor-associated kinase 1 (Homo sapiens, UniProt P51617); test: Inhibition of recombinant human N-terminal GST-tagged IRAK1 (194 to 712 residues) expressed in baculovirus expression system using 5-FAM-KKKVSRSGLYRSPSMPENLNRPR-COOH as substrate measured after 240 mins by mobility shift assay
Sequence of Interleukin-1 receptor-associated kinase 1 (P51617 whole entry, the tested form may be a part): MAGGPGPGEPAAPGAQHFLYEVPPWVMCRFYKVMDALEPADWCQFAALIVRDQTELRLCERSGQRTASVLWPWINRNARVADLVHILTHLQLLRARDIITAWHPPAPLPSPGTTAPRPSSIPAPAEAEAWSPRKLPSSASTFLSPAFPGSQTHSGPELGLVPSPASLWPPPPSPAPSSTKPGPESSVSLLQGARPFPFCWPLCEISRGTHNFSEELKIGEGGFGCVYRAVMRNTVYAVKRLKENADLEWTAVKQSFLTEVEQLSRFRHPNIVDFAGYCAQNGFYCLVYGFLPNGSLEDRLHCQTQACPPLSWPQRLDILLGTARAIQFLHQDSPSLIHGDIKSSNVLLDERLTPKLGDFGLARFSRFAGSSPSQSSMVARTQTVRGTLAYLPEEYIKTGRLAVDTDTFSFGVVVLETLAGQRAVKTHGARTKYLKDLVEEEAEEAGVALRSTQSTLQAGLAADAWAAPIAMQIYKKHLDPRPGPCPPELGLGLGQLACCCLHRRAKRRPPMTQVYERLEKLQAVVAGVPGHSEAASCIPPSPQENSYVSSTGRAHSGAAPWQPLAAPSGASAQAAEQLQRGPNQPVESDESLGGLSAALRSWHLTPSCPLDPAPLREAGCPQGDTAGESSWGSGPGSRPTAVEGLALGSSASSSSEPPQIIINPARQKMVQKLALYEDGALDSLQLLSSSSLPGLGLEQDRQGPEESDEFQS

[4] = target: T1, Interleukin-1 receptor-associated kinase 3 (Homo sapiens, UniProt Q9Y616); test: Inhibition of kinase tracer 236 binding to recombinant human full-length GST-tagged IRAK3 expressed in insect cells by Lanthascreen Eu kinase binding assay
T1 sequence (Q9Y616 whole entry): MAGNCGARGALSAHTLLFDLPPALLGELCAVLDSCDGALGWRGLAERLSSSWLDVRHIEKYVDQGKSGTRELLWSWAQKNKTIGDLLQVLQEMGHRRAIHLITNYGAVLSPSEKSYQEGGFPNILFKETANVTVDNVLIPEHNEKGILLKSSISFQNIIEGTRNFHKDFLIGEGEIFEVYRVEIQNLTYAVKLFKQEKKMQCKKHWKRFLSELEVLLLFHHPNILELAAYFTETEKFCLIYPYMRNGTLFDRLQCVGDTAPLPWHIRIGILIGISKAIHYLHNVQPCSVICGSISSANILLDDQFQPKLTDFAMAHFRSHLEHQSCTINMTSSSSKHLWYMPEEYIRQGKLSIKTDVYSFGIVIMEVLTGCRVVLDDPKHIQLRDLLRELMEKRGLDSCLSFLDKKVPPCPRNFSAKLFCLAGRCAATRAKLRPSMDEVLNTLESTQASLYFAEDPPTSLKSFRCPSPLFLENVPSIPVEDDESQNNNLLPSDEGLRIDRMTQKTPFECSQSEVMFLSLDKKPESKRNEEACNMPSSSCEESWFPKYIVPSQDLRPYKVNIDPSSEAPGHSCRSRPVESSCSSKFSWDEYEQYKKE

[5] = target: T2, Interleukin-1 receptor-associated kinase 4 (Homo sapiens, UniProt Q9NWZ3); test: Inhibition of recombinant human full-length His-tagged IRAK4 expressed in baculovirus expression system using 5-FAM-IPTSPITTTYFFFKKK-COOH as substrate measured after 240 mins by mobility shift assay
T2 sequence (Q9NWZ3 whole entry): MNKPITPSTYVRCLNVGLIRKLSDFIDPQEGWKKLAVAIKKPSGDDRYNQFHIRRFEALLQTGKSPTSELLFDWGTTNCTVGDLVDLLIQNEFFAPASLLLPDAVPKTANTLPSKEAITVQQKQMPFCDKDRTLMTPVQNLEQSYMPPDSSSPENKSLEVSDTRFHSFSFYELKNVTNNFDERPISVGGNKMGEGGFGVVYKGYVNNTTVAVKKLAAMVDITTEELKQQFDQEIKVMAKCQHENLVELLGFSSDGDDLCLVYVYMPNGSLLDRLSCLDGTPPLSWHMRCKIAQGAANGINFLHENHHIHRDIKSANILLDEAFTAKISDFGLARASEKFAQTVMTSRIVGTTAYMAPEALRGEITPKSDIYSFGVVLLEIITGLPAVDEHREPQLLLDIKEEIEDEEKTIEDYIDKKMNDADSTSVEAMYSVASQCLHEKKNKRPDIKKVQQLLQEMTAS

[6] = Efflux ratio of apparent permeability in human Caco-2 cells
[7] = target: T3, Serine/threonine-protein kinase haspin (Homo sapiens, UniProt Q8TF76); test: Inhibition of GSG2 (unknown origin)
T3 sequence (Q8TF76 whole entry): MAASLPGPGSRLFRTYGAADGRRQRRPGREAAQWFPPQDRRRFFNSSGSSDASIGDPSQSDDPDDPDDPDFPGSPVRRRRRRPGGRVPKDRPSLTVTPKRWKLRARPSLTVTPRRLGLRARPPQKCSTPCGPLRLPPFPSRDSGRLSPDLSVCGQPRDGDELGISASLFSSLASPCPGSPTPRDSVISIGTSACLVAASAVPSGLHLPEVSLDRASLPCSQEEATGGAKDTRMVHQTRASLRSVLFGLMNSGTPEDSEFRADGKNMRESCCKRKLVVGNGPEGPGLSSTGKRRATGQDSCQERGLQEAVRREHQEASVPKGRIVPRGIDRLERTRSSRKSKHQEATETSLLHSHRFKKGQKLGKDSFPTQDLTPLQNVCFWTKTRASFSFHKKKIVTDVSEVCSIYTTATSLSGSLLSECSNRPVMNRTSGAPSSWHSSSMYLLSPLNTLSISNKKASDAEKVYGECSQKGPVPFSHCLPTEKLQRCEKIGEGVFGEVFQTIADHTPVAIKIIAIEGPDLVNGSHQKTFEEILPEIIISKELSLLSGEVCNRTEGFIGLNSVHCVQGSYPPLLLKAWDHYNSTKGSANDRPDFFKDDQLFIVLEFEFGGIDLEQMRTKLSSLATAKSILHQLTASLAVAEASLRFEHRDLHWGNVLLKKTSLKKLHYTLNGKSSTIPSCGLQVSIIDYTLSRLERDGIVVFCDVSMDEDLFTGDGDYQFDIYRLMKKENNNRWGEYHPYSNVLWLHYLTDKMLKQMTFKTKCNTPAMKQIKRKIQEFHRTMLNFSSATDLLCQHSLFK

[8] = target: Interleukin-1 receptor-associated kinase 3 (Homo sapiens) (UniProt Q9Y616); test: Inhibition of IRAK3 (unknown origin) at 0.1 uM relative to control
[9] = target: Serine/threonine-protein kinase haspin (Homo sapiens) (UniProt Q8TF76); test: Inhibition of GSG2 (unknown origin) at 0.1 uM relative to control
[10] = target: Cyclin-C/Cyclin-dependent kinase 19 (Homo sapiens) (UniProt Q9BWU1+P24863); test: Inhibition of CDK11/cyclin C (unknown origin) at 0.1 uM relative to control; format: protein-complex assay
[11] = target: CDK8/Cyclin C (Homo sapiens) (UniProt P49336+P24863); test: Inhibition of CDK8/cyclin C (unknown origin) at 0.1 uM relative to control; format: protein-complex assay
[12] = target: Protein cereblon (Homo sapiens, UniProt Q96SW2); test: Inhibition of CRBN (unknown origin)
Sequence of Protein cereblon (Q96SW2 whole entry): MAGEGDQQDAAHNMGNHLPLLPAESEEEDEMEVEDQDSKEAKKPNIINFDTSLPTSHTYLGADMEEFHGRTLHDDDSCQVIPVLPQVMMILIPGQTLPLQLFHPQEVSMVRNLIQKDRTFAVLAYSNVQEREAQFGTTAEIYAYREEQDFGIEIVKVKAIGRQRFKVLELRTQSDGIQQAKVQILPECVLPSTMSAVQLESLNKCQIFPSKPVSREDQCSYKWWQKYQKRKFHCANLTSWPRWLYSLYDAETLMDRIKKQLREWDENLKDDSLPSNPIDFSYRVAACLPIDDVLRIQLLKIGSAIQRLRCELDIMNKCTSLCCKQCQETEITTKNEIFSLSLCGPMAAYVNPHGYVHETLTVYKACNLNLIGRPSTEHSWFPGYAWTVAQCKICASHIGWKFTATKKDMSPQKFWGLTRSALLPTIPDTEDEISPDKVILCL

[13] = target: T4, Protein cereblon/Interleukin-1 receptor-associated kinase 3 (Homo sapiens, UniProt Q9Y616+Q96SW2); test: Protac activity at CRBN/IRAK3 in LPS-induced human THP1 cells assessed as induction of IRAK3 degradation after 16 hrs by Western blot analysis; format: cell-based; settings: thp-1
Target sequence in this assay (Q96SW2 whole entry, one chain of several): as the sequence (Q96SW2 whole entry) above

[14] = target: T4, Protein cereblon/Interleukin-1 receptor-associated kinase 3; test: Protac activity at CRBN/IRAK3 in human THP1 cells assessed as induction of IRAK3 degradation at 0.1 to 10 uM measured after 24 hrs by Western blot analysis; format: cell-based; settings: THP-1, dose microM 0.1-10, time […]
Target sequence in this assay (Q96SW2 whole entry, looked up, one chain of several): as the sequence (Q96SW2 whole entry) above

[15] = target: T4, Protein cereblon/Interleukin-1 receptor-associated kinase 3; test: Protac activity at CRBN/IRAK3 in human PBMC derived primary macrophages assessed as induction of IRAK3 degradation at 0.3 uM measured after 8 to 32 hrs by Western blot analysis; format: tissue-based; settings: Primary macrophage, time hrs 8-32
Target sequence in this assay (Q96SW2 whole entry, looked up, one chain of several): as the sequence (Q96SW2 whole entry) above

[16] = target: T4, Protein cereblon/Interleukin-1 receptor-associated kinase 3; test: Protac activity at CRBN/IRAK3 in human PBMC derived primary macrophages assessed as induction of IRAK3 degradation at 0.3 uM preincubated for 8 hrs followed by LPS-stimulation and measured after 8 to 32 hrs by Western blot analysis; format: tissue-based; settings: Primary macrophage
Target sequence in this assay (Q96SW2 whole entry, looked up, one chain of several): as the sequence (Q96SW2 whole entry) above

Row | logD [1] | Papp A→B [2] [nm/s] | IC50 [3] [µM] | IC50 [4] [µM] | IC50 [5] [µM] | efflux ratio [6] | IC50 [7] [µM] | inhibition [8] [%] | inhibition [9] [%] | inhibition [10] [%] | inhibition [11] [%] | IC50 [12] [µM] | DC50 [13] [µM] | Activity [14] | Activity [15] | Activity [16] | Compound
1 | 2.3 | 120 | 1.4 | 0.004 | 0.84 | 4.3 | – | – | – | – | – | – | – | – | – | – | CC(=O)N1CCN([C@H]2CC[C@@H](Nc3ncnc4[nH]cc(C(C)C)c34)CC2)CC1
2 | – | – | – | 0.006 | – | – | 0.15 | 91 | 55 | 51 | 39 | – | – | – | – | – | CC(=O)N1CCN([C@H]2CC[C@@H](Nc3ncnn4ccc(C(C)C)c34)CC2)CC1
3 | 3.7 | – | 3.4 | 0.004 | > 1 | – | – | – | – | – | – | > 12 | > 10 | inactive | inactive | inactive | CC(C)c1ccn2ncnc(N[C@H]3CC[C@@H](N4CCN(C(=O)CCC(=O)N5CCC(CCN6CCN(c7ccc8c(c7)C(=O)N(C7CCC(=O)N(C)C7=O)C8=O)CC6)CC5)CC4)CC3)c12 (stereo partly specified)
